Measurements as given in US11564928B1, “Cannabinoid receptor type 2 (CB2) modulators and uses thereof” (Teon Therapeutics, Inc., priority 2020, dated 2023).
Like-named read-outs stand apart in the source and are kept apart here.

Key:
human CB2 receptor = human CB2 receptor (Homo sapiens (Human), UniProt P34972); experiment: CB2 receptor binding assay ([3H]CP-55,940 displacement, HEK-293 membranes)
Description: The compounds were evaluated in CB1R and CB2R binding assays using membranes from HEK-293 cells transfected with cDNAs encoding the human recombinant CB1R (Bmax=[…] protein) and human recombinant CB2R (Bmax=[…] protein) (Perkin-Elmer). […] Compounds were tested following the procedure described by the cell membrane manufacturer. […] CB2R binding assays were carried out with two different buffers: incubation buffer (Tris-HCl, 50 mM; MgCl2, 5 mM; CaCl2 1 mM; BSA, 0.2% at pH 7.4) and washing buffer (Tris-HCl, 50 mM; NaCl 500 mM; BSA, 0.1% at pH 7.4). […] Assays were performed in duplicate and incubated for […] at 37° C. […] Data are analyzed and IC50 is calculated using GraphPad Prism 5 and the model “log(inhibitor) vs. response—Variable slope”. The binding affinity of the compounds is Determined by Using the Cheng and Prusoff Equation Ki=IC50/(1+[radioligand]/Kd).

human recombinant CB1R = human recombinant CB1R (Homo sapiens (Human), UniProt P21554); experiment: CB1 receptor binding assay ([3H]CP-55,940 displacement, HEK-293 membranes); conditions: membranes of HEK-293 cells with human recombinant CB1R, [3H]CP-55,940, read-out: CB1 IC50
Description: The compounds were evaluated in CB1R and CB2R binding assays using membranes from HEK-293 cells transfected with cDNAs encoding the human recombinant CB1R (Bmax=[…] protein) and human recombinant CB2R (Bmax=[…] protein) (Perkin-Elmer). […]. Compounds were tested following the procedure described by the cell membrane manufacturer. […] CB2R binding assays were carried out with two different buffers: incubation buffer (Tris-HCl, 50 mM; MgCl2, 5 mM; CaCl2 1 mM; BSA, 0.2% at pH 7.4) and washing buffer (Tris-HCl, 50 mM; NaCl 500 mM; BSA, 0.1% at pH 7.4). […] Assays were performed in duplicate and incubated for […] at 37° C. After the incubation, the assay mixture is filtered through 96 GF/C filter plates (Perkin Elmer #6005174) using Perkin Elmer Filtermate Harvester, and then washed four times with ice-cold washing buffer. The filters are dried for 1 hour at 50° C. and [^3H] trapped on filter counted for radioactivity in Perkin Elmer Microscint 20 cocktail (#6013329) using Perkin Elmer MicroBeta2 Reader. […] Data are analyzed and IC50 is calculated using GraphPad Prism 5 and the model “log(inhibitor) vs. response—Variable slope”. The binding affinity of the compounds is Determined by Using the Cheng and Prusoff Equation Ki=IC50/(1+[radioligand]/Kd).

[1] = membranes of HEK-293 cells with human recombinant CB2R, [3H]CP-55,940, class symbols, read-out: CB2 IC50
[2] = membranes of HEK-293 cells with human recombinant CB2R, [3H]CP-55,940, read-out: CB2 IC50

human recombinant CB1R, sequence (P21554 whole entry): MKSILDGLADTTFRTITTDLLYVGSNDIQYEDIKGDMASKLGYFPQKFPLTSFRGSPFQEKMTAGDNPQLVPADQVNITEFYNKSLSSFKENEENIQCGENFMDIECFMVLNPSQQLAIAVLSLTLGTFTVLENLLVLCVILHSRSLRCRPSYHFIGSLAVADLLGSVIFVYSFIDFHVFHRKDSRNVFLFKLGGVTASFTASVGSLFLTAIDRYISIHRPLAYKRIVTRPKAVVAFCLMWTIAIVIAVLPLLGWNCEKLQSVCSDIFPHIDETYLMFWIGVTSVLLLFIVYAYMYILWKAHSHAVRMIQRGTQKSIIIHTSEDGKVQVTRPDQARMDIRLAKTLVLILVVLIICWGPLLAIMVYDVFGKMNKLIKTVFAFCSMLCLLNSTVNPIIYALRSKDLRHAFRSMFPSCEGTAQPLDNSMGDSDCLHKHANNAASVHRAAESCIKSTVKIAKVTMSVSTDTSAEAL
human CB2 receptor, sequence (P34972 whole entry): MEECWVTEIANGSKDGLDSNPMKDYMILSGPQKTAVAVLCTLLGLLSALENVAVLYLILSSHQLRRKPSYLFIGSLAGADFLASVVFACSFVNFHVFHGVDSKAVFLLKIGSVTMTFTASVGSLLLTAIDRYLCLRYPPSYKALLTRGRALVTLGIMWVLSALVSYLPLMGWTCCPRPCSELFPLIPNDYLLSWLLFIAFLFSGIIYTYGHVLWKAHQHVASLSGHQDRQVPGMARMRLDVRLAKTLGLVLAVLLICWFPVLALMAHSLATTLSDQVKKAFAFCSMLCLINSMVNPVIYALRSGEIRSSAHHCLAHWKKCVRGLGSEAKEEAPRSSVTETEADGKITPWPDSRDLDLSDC

Compound	IC50 (human CB2 receptor) [nM]	IC50 (human recombinant CB1R; class symbols) [nM]	IC50 (human CB2 receptor; [1]) [nM]	IC50 (human CB2 receptor; [2]) [nM]	IC50 (human recombinant CB1R) [nM]
CN1CCN(CCn2c(=O)c(C(=O)NC34CC(C3)C4)c(O)c3cc(-c4ccc(F)cc4)cnc32)CC1 [Compound 132, N-(bicyclo[1.1.1]pentan-1-yl)-6-(4-fluorophenyl)-4-hydroxy-1-(2-(4-methylpiperazin-1-yl)ethyl)-2-oxo-1,2-dihydro-1,8-naphthyridine-3-carboxamide]	100 to 999	> 1000	–	–	–
O=C(NC1CC2(CCC2)C1)c1cc2cc(-c3ccc(F)cc3)cnc2n(Cc2cccnc2)c1=O [Compound 97, 6-(4-fluorophenyl)-2-oxo-1-(pyridin-3-ylmethyl)-N-(spiro[3.3]heptan-2-yl)-1,2-dihydro-1,8-naphthyridine-3-carboxamide]	–	> 1000	< 100	–	–
O=C(NC12CC(C1)C2)c1c(O)c2cc(-c3ccc(F)cc3)cnc2n(Cc2cccnc2)c1=O [Compound 130, N-(bicyclo[1.1.1]pentan-1-yl)-6-(4-fluorophenyl)-4-hydroxy-2-oxo-1-(pyridin-3-ylmethyl)-1,2-dihydro-1,8-naphthyridine-3-carboxamide]	–	> 1000	> 1000	–	–
COc1ccc(-c2cnc3c(c2)cc(C(=O)NC2CCC(F)(F)CC2)c(=O)n3CCN2CCOCC2)cc1 [Compound 27, N-(4,4-difluorocyclohexyl)-6-(4-methoxyphenyl)-1-(2-morpholinoethyl)-2-oxo-1,2-dihydro-1,8-naphthyridine-3-carboxamide]	–	–	–	2	> 10000
CC(C)(C)NC(=O)c1c(O)c2cc(-c3ccc(F)cc3)cnc2n(CCN2CCOCC2)c1=O [Compound 118, N-(tert-butyl)-6-(4-fluorophenyl)-4-hydroxy-1-(2-morpholinoethyl)-2-oxo-1,2-dihydro-1,8-naphthyridine-3-carboxamide]	100 to 999	> 1000	–	–	–
C[C@H]1C[C@H](NC(=O)c2c(O)c3cc(-c4ccc(F)cc4)cnc3n(CCN3CCOCC3)c2=O)C1 [Compound 114, 6-(4-fluorophenyl)-4-hydroxy-N-((1r, 3r)-3-methylcyclobutyl)-1-(2-morpholinoethyl)-2-oxo-1,2-dihydro-1,8-naphthyridine-3-carboxamide]	100 to 999	> 1000	–	–	–
C[C@H]1CC[C@@H](NC(=O)c2c(O)c3cc(-c4ccc(F)cc4)cnc3n(CCN3CCOCC3)c2=O)CC1 [Compound 109, 6-(4-fluorophenyl)-4-hydroxy-N-((1s, 4s)-4-methylcyclohexyl)-1-(2-morpholinoethyl)-2-oxo-1,2-dihydro-1,8-naphthyridine-3-carboxamide]	–	> 1000	< 100	–	–
COc1ccc(-c2cnc3c(c2)c(O)c(C(=O)N[C@H](C)c2ccc(F)cc2)c(=O)n3CCN2CCOCC2)cc1 [Compound 150, (R)—N-(1-(4-fluorophenyl)ethyl)-4-hydroxy-6-(4-methoxyphenyl)-1-(2-morpholinoethyl)-2-oxo-1,2-dihydro-1,8-naphthyridine-3-carboxamide]	100 to 999	> 1000	–	–	–
O=C(NC1CC2(CCC2)C1)c1cc2cc(-c3ccc(F)cn3)cnc2n(CCN2CCOCC2)c1=O [Compound 37, 6-(5-fluoropyridin-2-yl)-1-(2-morpholinoethyl)-2-oxo-N-(spiro[3.3]heptan-2-yl)-1,2-dihydro-1,8-naphthyridine-3-carboxamide]	–	–	–	0.6	112
COc1ccc(-c2cnc3c(c2)c(O)c(C(=O)N[C@H]2CC[C@@H](C)CC2)c(=O)n3CCN2CCOCC2)cc1 [Compound 149, 4-hydroxy-6-(4-methoxyphenyl)-N-((1s,4S)-4-methylcyclohexyl)-1-(2-morpholinoethyl)-2-oxo-1,2-dihydro-1,8-naphthyridine-3-carboxamide]	–	> 1000	< 100	–	–
COc1ccc(-c2cnc3c(c2)c(C)c(C(=O)NC2CCC(C)CC2)c(=O)n3CCN2CCOCC2)cc1 (stereo not shown) [Compound 73, 6-(4-methoxyphenyl)-4-methyl-N-(4-methylcyclohexyl)-1-(2-morpholinoethyl)-2-oxo-1,2-dihydro-1,8-naphthyridine-3-carboxamide]	100 to 999	> 1000	–	–	–
O=C(NC1CC2(CCC2)C1)c1cc2cc(C3CC3)cnc2n(Cc2ccc(F)cc2)c1=O [Compound 93, 6-cyclopropyl-1-(4-fluorobenzyl)-2-oxo-N-(spiro[3.3]heptan-2-yl)-1,2-dihydro-1,8-naphthyridine-3-carboxamide]	–	–	–	3.6	> 10000
COc1ccc(-c2cnc3c(c2)cc(C(=O)NC2CCC(C)(C)CC2)c(=O)n3CCN2CCOCC2)cc1 [Compound 26, N-(4,4-dimethylcyclohexyl)-6-(4-methoxyphenyl)-1-(2-morpholinoethyl)-2-oxo-1,2-dihydro-1,8-naphthyridine-3-carboxamide]	–	–	–	2.2	> 10000
CC1CCC(NC(=O)c2c(O)c3cc(-c4ccc(OC(C)C)cc4)cnc3n(CCN3CCOCC3)c2=O)CC1 (stereo not shown) [Compound 18, 4-hydroxy-6-(4-isopropoxyphenyl)-N-(4-methylcyclohexyl)-1-(2-morpholinoethyl)-2-oxo-1,2-dihydro-1,8-naphthyridine-3-carboxamide]	–	> 1000	> 1000	–	–
C[C@H]1CC[C@@H](NC(=O)c2c(O)c3cccnc3n(Cc3ccc(F)cc3)c2=O)CC1 [Compound 143, 1-(4-fluorobenzyl)-4-hydroxy-N-((1s, 4s)-4-methylcyclohexyl)-2-oxo-1,2-dihydro-1,8-naphthyridine-3-carboxamide]	–	–	–	34	3360
O=C(NC12CC(C1)C2)c1c(O)c2cc(-c3ccc(OC(F)F)cc3)cnc2n(CCN2CCOCC2)c1=O [Compound 12, N-(bicyclo[1.1.1]pentan-1-yl)-6-(4-(difluoromethoxy)phenyl)-4-hydroxy-1-(2-morpholinoethyl)-2-oxo-1,2-dihydro-1,8-naphthyridine-3-carboxamide]	–	> 1000	> 1000	–	–
O=C(NC1(CO)CCCCC1)c1c(O)c2cccnc2n(CCN2CCOCC2)c1=O [Compound 138, 4-hydroxy-N-[1-(hydroxymethyl)cyclohexyl]-1-(2-morpholinoethyl)-2-oxo-1,8-naphthyridine-3-carboxamide]	100 to 999	> 1000	–	–	–
O=C(NC12CC(C1)C2)c1c(O)c2cc(-c3ccc(F)cc3)cnc2n(CCN2CCCCC2)c1=O [Compound 128, N-(bicyclo[1.1.1]pentan-1-yl)-6-(4-fluorophenyl)-4-hydroxy-2-oxo-1-(2-(piperidin-1-yl)ethyl)-1,2-dihydro-1,8-naphthyridine-3-carboxamide]	100 to 999	> 1000	–	–	–
COc1ccc(-c2cnc3c(c2)c(C)c(C(=O)NC2CCC(C)CC2)c(=O)n3Cc2ccc(F)cc2)cc1 (stereo not shown) [Compound 80, 1-(4-fluorobenzyl)-6-(4-methoxyphenyl)-4-methyl-N-(4-methylcyclohexyl)-2-oxo-1,2-dihydro-1,8-naphthyridine-3-carboxamide]	100 to 999	> 1000	–	–	–
Cc1c(C(=O)NC2CC3(CCC3)C2)c(=O)n(Cc2ccc(F)cc2)c2ncc(Br)cc12 [Compound 76, 6-bromo-1-(4-fluorobenzyl)-4-methyl-2-oxo-N-(spiro[3.3]heptan-2-yl)-1,2-dihydro-1,8-naphthyridine-3-carboxamide]	–	> 1000	< 100	–	–
C[C@H]1CC[C@H](NC(=O)c2c(O)c3cccnc3n(Cc3ccc(F)cc3)c2=O)CC1 [Compound 144, 1-(4-fluorobenzyl)-4-hydroxy-N-((1r, 4r)-4-methylcyclohexyl)-2-oxo-1,2-dihydro-1,8-naphthyridine-3-carboxamide]	–	–	–	1500	> 10000
O=C(NC1CC2(CCC2)C1)c1c(O)c2cccnc2n(CCN2CCOCC2)c1=O [Compound 135, 4-hydroxy-2-oxo-1-(2-morpholinoethyl)-N-(spiro[3.3]heptan-2-yl)-1,2-dihydro-1,8-naphthyridine-3-carboxamide]	–	> 1000	< 100	–	–
CC12CC(NC(=O)c3c(O)c4cccnc4n(Cc4ccc(F)cc4)c3=O)(C1)C2 [Compound 141, 1-[(4-fluorophenyl)methyl]-4-hydroxy-N-(3-methyl-1-bicyclo[1.1.1]pentanyl)-2-oxo-1,8-naphthyridine-3-carboxamide]	100 to 999	> 1000	–	–	–
